The values below come from patent US11365199B2, “Pyrazole compounds as modulators of FSHR and uses thereof” (Merck Patent GmbH, priority 2013, dated 2022).

SMILES strings stand for the structures. Counter-ions that a name gives are not always drawn.

As usually defined, the EC50 is the midpoint of the concentration-response curve.

This assay deals with T1, FSHR (Homo sapiens, UniProt P23945).
T1 construct: expressed in transfected cells; host or cells: CHO (Cho-FSHR-LUC-1-1-43)
T1 sequence (P23945 18-695): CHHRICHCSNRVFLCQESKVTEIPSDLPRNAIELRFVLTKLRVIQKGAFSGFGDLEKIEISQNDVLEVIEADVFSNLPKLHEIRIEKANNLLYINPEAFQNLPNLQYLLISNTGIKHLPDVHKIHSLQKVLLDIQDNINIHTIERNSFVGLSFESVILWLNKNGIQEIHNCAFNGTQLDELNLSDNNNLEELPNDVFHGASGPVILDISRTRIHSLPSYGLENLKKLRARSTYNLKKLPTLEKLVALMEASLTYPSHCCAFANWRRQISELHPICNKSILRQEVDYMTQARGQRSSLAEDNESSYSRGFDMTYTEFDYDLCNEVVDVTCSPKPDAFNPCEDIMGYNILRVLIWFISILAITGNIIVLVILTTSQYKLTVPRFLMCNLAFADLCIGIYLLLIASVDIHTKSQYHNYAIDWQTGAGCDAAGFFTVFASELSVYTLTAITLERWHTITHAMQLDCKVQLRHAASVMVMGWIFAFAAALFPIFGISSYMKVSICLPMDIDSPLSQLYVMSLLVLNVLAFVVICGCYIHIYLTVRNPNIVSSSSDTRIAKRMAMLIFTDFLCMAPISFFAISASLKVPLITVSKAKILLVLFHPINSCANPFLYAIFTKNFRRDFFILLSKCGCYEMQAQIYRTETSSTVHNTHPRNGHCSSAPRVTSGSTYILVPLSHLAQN
In words: EC50 of cyclic AMP production in CHO FSHR cells + EC20 FSH (Assay A). The format is cell-based. The conditions noted are these: CHO FSHR cells + EC20 FSH, cAMP HTRF; read-out: Assay A: EC50 of cyclic AMP production. The gist of the method: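 Cho-FSHR-LUC cells were exposed to compound dilution series with EC20 FSH ([…]) and 200 μM IBMX for 1 h at 37° C. cAMP was read by HTRF (665/620 nm ratio). Effects are percent of the maximal FSH standard response.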
In general terms: In TR-FRET formats the signal depends on donor and acceptor labels being close together.
For the compound `COc1cc2c(cc1C=C(C)C)-c1c(c(C(=O)N3CCC[C@@H](C(=O)N4CCC4)CC3)nn1-c1ccsc1)CO2` [Compound 45, [(R)-4-(Azetidine-1-carbonyl)-azepan-1-yl]-[7-methoxy-8-(2-methyl-propenyl)-1-thiophen-3-yl-1,4-dihydro-chromeno[4,3-c]pyrazol-3-yl]-methanone], the EC50 was 100 to 1000 nM. Turning to `COc1cc2c(cc1CN)-c1c(c(C(=O)N3CCOCC3(C)C)nn1-c1ccsc1)CO2` [Compound 166, (8-Aminomethyl-7-methoxy-1-thiophen-3-yl-1,4-dihydro-chromeno[4,3-c]pyrazol-3-yl)-(3,3-dimethyl-morpholin-4-yl)-methanone], the EC50 is 1000 to 5000 nM. The result for `COc1cc2c(cc1-c1ccn(C)n1)-c1c(c(C(=O)N[C@H]3CC[C@@H](O)C3)nn1-c1ccsc1)CO2` [Compound 172, 7-Methoxy-8-(1-methyl-1H-pyrazol-3-yl)-1-thiophen-3-yl-1,4-dihydro-chromeno[4,3-c]pyrazole-3-carboxylic acid ((1S,3R)-3-hydroxy-cyclopentyl)-amide] reads greater than 5000 nM; that for `COc1cc2c(cc1-c1ccnn1C)-c1c(c(C(=O)N(C)C(C)(C)C)nn1-c1ccsc1)CO2` [Compound 64, 7-Methoxy-8-(2-methyl-2H-pyrazol-3-yl)-1-thiophen-3-yl-1,4-dihydro-chromeno[4,3-c]pyrazole-3-carboxylic acid tert-butyl-methyl-amide], less than 100 nM. The result for `COc1cc2c(cc1-c1ccn(C)n1)-c1c(c(C(=O)N3CCN(C(=O)OC(C)(C)C)CC3(C)C)nn1-c1ccsc1)CO2` [Compound 156, 4-[7-Methoxy-8-(1-methyl-1H-pyrazol-3-yl)-1-thiophen-3-yl-1,4-dihydro-chromeno[4,3-c]pyrazole-3-carbonyl]-3,3-dimethyl-piperazine-1-carboxylic acid tert-butyl ester] reads 100 to 1000 nM; that for `COc1cc2c(cc1-c1sc(C)nc1C)-c1c(c(C(=O)N(C)C(C)(C)C)nn1-c1ccsc1)CO2` [Compound 53, 8-(2,4-Dimethyl-thiazol-5-yl)-7-methoxy-1-thiophen-3-yl-1,4-dihydro-chromeno[4,3-c]pyrazole-3-carboxylic acid tert-butyl-methyl-amide], less than 100 nM. For `COc1cc2c(cc1-c1c[nH]nc1C)-c1c(c(C(=O)NC3CCOC3)nn1-c1ccsc1)CO2` (stereo not shown) [Compound 135, 7-Methoxy-8-(3-methyl-1H-pyrazol-4-yl)-1-thiophen-3-yl-1,4-dihydro-chromeno[4,3-c]pyrazole-3-carboxylic acid (tetrahydro-furan-3-yl)-amide], the EC50 lay within 1000 to 5000 nM.

Take `COc1cc2c(cc1-c1ccn(C)c1)-c1c(c(C(=O)N3CCN(C(C)=O)CC3)nn1-c1ccsc1)CO2` [Compound 155, 1-{4-[7-Methoxy-8-(1-methyl-1H-pyrrol-3-yl)-1-thiophen-3-yl-1,4-dihydro-chromeno[4,3-c]pyrazole-3-carbonyl]-piperazin-1-yl}-ethanone]: the EC50 was greater than 5000 nM.

For `COc1cc2c(cc1-c1ccn(C)c1)-c1c(c(C(=O)N3CCCC3(C)CO)nn1-c1ccsc1)CO2` (stereo not shown) [Compound 176, (2-Hydroxymethyl-2-methyl-pyrrolidin-1-yl)-[7-methoxy-8-(1-methyl-1H-pyrrol-3-yl)-1-thiophen-3-yl-1,4-dihydro-chromeno[4,3-c]pyrazol-3-yl]-methanone], the concentration for a half-maximal effect (EC50) is less than 100 nM. `COc1cc2c(cc1-c1ccn(C)c1)-c1c(c(C(=O)NCC3(O)COC3)nn1-c1ccsc1)CO2` [Compound 164, 7-Methoxy-8-(1-methyl-1H-pyrrol-3-yl)-1-thiophen-3-yl-1,4-dihydro-chromeno[4,3-c]pyrazole-3-carboxylic acid (3-hydroxy-oxetan-3-ylmethyl)-amide]: the EC50 was in the range of 1000 to 5000 nM. The result for `COc1cc2c(cc1C=C(C)C)-c1c(c(C(=O)NCCCNC(C)=O)nn1-c1ccsc1)CO2` [Compound 8, 7-Methoxy-8-(2-methyl-propenyl)-1-thiophen-3-yl-1,4-dihydro-chromeno[4,3-c]pyrazole-3-carboxylic acid (3-acetylamino-propyl)-amide] reads greater than 5000 nM; that for `[2H]C([2H])([2H])OCC(C)(C)NC(=O)c1nn(-c2ccsc2)c2c1COc1cc(OC)c(C=C(C)C)cc1-2` [Compound 59], 100 to 1000 nM; that for `COc1ccc2c(c1)OCc1c(C(=O)N3CCOCC3(C)C)nn(-c3ccsc3)c1-2` [Compound 128, (3,3-Dimethyl-morpholin-4-yl)-(7-methoxy-1-thiophen-3-yl-1,4-dihydro-chromeno[4,3-c]pyrazol-3-yl)-methanone], greater than 5000 nM. The result for `COc1cc2c(cc1-c1ccn(C)n1)-c1c(c(C(=O)N3CCN(C(C)=O)CC3(C)C)nn1-c1ccsc1)CO2` [Compound 216] reads less than 100 nM; that for `COc1cc2c(cc1CC(C)C)-c1c(c(C(=O)NC3(C)COC3)nn1-c1ccsc1)CO2` [Compound 145, 8-Isobutyl-7-methoxy-1-thiophen-3-yl-1,4-dihydro-chromeno[4,3-c]pyrazole-3-carboxylic acid (3-methyl-oxetan-3-yl)-amide], 100 to 1000 nM; that for `CCn1nccc1-c1cc2c(cc1OC)OCc1c(C(=O)N3CCOCC3(C)C)nn(-c3ccsc3)c1-2` [Compound 213, (3,3-Dimethyl-morpholin-4-yl)-[8-(2-ethyl-2H-pyrazol-3-yl)-7-methoxy-1-thiophen-3-yl-1,4-dihydro-chromeno[4,3-c]pyrazol-3-yl]-methanone], less than 100 nM.

Regarding `COc1cc2c(cc1C=C(C)C)-c1c(c(C(=O)NCCCc3nnn[nH]3)nn1-c1ccsc1)CO2` [Compound 11, 7-Methoxy-8-(2-methyl-propenyl)-1-thiophen-3-yl-1,4-dihydro-chromeno[4,3-c]pyrazole-3-carboxylic acid [3-(1H-tetrazol-5-yl)-propyl]-amide; trifluoro-acetic acid salt], the concentration giving a half-maximal response (EC50) lay in the range of 1000 to 5000 nM. On to `COc1cc2c(cc1C=C(C)C)-c1c(c(C(=O)N3CCCC(NC(=O)C4CCC4)CC3)nn1-c1ccsc1)CO2` (stereo not shown) [Compound 37, Cyclobutanecarboxylic acid {1-[7-methoxy-8-(2-methyl-propenyl)-1-thiophen-3-yl-1,4-dihydro-chromeno[4,3-c]pyrazole-3-carbonyl]-azepan-4-yl}-amide], for which the EC50 lay in the range of 1000 to 5000 nM. For the compound `[2H]C([2H])([2H])O[C@@H]1CC[C@H](N(C(=O)c2nn(-c3ccsc3)c3c2COc2cc(OC)c(-c4ccn(C)c4)cc2-3)C([2H])([2H])[2H])C1` [Compound 178], the EC50 fell in the range of 1000 to 5000 nM. With `COc1cc2c(cc1C1=CCN(C)CC1)-c1c(c(C(=O)N(C)C(C)(C)C)nn1-c1ccsc1)CO2` [Compound 68, 7-Methoxy-8-(1-methyl-1,2,3,6-tetrahydro-pyridin-4-yl)-1-thiophen-3-yl-1,4-dihydro-chromeno[4,3-c]pyrazole-3-carboxylic acid tert-butyl-methyl-amide] the figure was less than 100 nM; with `[2H]C([2H])([2H])N(CCNC(C)=O)C(=O)c1nn(-c2ccsc2)c2c1COc1cc(OC)c(C=C(C)C)cc1-2` [Compound 87], 100 to 1000 nM; with `[2H]C([2H])([2H])N(C(=O)c1nn(-c2ccsc2)c2c1COc1cc(OC)c(-c3ccnn3C)cc1-2)C1(C)COC1` [Compound 118], less than 100 nM.
